Data on 13 compounds can be found in patent publication US20030109571A1, “Thromboxane ligands without blood clotting side effects” (ALLERGAN SALES, INC., priority 1993, published 2003).

Where two headings read alike, the source gives them in different places. Marks after values point to notes of the source that are not given here.

The target of experiment [1] is T1, TP-receptor (vascular, TPVASC) (Rattus norvegicus, UniProt P34978).
T1 construct: measured in vitro in isolated smooth muscle preparations; from tissue; host or cells: rings of isolated rat thoracic aorta
T1 sequence (P34978 1-341): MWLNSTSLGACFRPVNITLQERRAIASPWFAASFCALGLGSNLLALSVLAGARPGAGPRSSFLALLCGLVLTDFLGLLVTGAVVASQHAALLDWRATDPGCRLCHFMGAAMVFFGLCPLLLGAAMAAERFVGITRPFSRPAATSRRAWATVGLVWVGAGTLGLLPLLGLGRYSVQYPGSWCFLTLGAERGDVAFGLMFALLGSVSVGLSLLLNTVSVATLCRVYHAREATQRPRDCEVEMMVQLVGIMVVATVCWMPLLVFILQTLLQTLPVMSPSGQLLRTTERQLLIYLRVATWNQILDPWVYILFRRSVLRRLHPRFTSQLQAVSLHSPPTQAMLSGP
Description: TP-vasoconstrictor activity: contraction of rings of isolated rat thoracic aorta, without or with SQ29,548. Particulars: for Kb: antagonist. The method, then:
(§1) Activity at different prostanoid receptors was measured in vitro in isolated smooth muscle preparations. FP-activity was measured as contraction of the isolated feline iris sphincter. EP1-activity was measured as contraction of the longitudinal smooth muscle of the isolated guinea pig ileum. EP3-activity was measured as inhibition of the twitch response induced by electrical field stimulation in the isolated guinea pig was deferens and as contraction of the longitudinal smooth muscle of the isolated chick ileum. TP-vasoconstrictor activity was measured as contraction of rings of the isolated rat thoracic aorta. Effects on platelets from healthy human donors were measured by incubating platelet-rich plasma with the compounds described herein. Inhibition of aggregation was determined by the ability of the compounds described herein to inhibit platelet aggregation in platelet-rich plasma induced by 20 μM ADP.
In addition, inhibition by the thromboxane A2-receptor antagonist SQ29,548 ([1S-[1α, 2α (5Z), 3α, 4α]]-7-[3-[[2-[phenylamino)carbonyl]-hydrazino]methyl]-7-oxabicyclo[2.2.1] hept-2-yl]-5-heptenoic acid) of vasoconstrictor activity was investigated.

A further experiment deals with Platelets (Human). Description: Platelet aggregation in platelet-rich plasma from healthy human donors. Particulars: for Kb: antagonist, read-out: KB Platelets aggreg. Type of experiment: cell-based. As to the method:
as §1

Experiment [2] can be described thus: Monkey intraocular pressure, topical dosing over 5 days, applanation pneumatonometry. Type of experiment: in vivo. Further details: Intraocular pressure change: unit not given beside the values. Particulars: for Intraocular pressure change: monkey. As to the method:
(§2) The compounds were prepared at the said concentrations in a vehicle comprising 0.1% polysorbate 80 and 10 mM TRIS base. Dogs and monkeys were treated by administering 25 ul to the ocular surface, the contralateral eye received vehicle as a control. Intraocular pressure was measured by applanation pneumatonometry. Experiments were performed with dogs and monkeys. Dog intraocular pressure was measured immediately before drug administration and at 2, 4 and 6 hour thereafter. Additional studies in monkeys were performed over a 5 day period and drug was administered at times 0, 6, 24, 30, 48, 54, 72, 78, and 96 hours. Monkey intraocular pressure was recorded just before drug administration on each day and at the 2 and 4 hour time intervals between dosing.

Experiment [3] in a line: Dog intraocular pressure, topical dosing, applanation pneumatonometry. Type of experiment: in vivo. Particulars: for Intraocular pressure change: dog. The method, then: as §2
For experiment [4], the system named is EP3 prostanoid receptor. Kind of experiment: EP3-activity: contraction of longitudinal smooth muscle of isolated chick ileum. The conditions noted are these: read-out: EC50 at EP3(d) (Chick Ileum). As to the method: as §1
Another experiment addresses FP prostanoid receptor. Kind of experiment: FP-activity: contraction of the isolated feline iris sphincter. The conditions noted are these: concentration producing 50% of maximal response; read-out: EC50 at FP (Cat Iris). The method, then: as §1
Another experiment relates to EP1 prostanoid receptor. Kind of experiment: EP1-activity: contraction of longitudinal smooth muscle of isolated guinea pig ileum. As to the method: as §1
Experiment [5] concerns isolated perfused coronary arteries. Particulars: at 1 μM; cited from earlier work.
In experiment [6] the test system is EP3 prostanoid receptor. Kind of experiment: EP3-activity: inhibition of electrically induced twitch response in isolated guinea pig vas deferens. The conditions noted are these: read-out: EC50 at EP3(c) (Guinea Pig vas deferens). As to the method: as §1
Another experiment relates to vasculature. Particulars: in words; cited from earlier work.
A further experiment concerns platelets. The conditions noted are these: in words; cited from earlier work.
The test system of another experiment is HPRP. The conditions noted are these: cited from earlier work; for Effect on HPRP: in words.
Another experiment concerns rat aorta. The conditions noted are these: read-out: CD50 contraction of isolated rat aorta; cited from earlier work.
Setting [7] is: Table 7, read-out: EC50 Platelets aggreg.
Setting [8] is: Table 7, read-out: EC50 (Rat Aorta).

Consider “[1S-[1α, 2α (5Z), 3α, 4α]]-7-[3-[[2-[phenylamino)carbonyl]-hydrazino]methyl]-7-oxabicyclo[2.2.1] hept-2-yl]-5-heptenoic acid [SQ29,548, reference compound]”, for which the results for the Kb (in experiment [1] (Table 7); with Platelets (Human) (Table 7)) were 1.6 nM and 30.6 nM, respectively.
Turning to “9,11-dideoxy-9α,11α-methanoepoxy prostaglandin F2α [Example U-46619, reference compound]”, the Intraocular pressure change in experiment [2] (dose not given, 0 HR) is recorded as 0; in [2] (dose not given, 2 HR), 2.0; in experiment [2] (dose not given, 4 HR) it was 0.3; in [2] (dose not given, 6 HR) it was 1.0; in experiment [3] (dose 0.1%, 2 HR after dosing), “+0.86”; in experiment [3] (dose 0.1%, 4 HR after dosing), “+1.75”. Besides, in [3] (dose 0.1%, 6 HR after dosing), the Intraocular pressure change entry was “+2.7”. The “Effect on intraocular pressure” value was “increase in intraocular pressure” in experiment [2] (monkeys, in words) and “increase in intraocular pressure” in experiment [3] (dogs, in words). For the same compound, the EC50 in the experiment with Platelets (Human) (setting [7]) came to 320 nM. Also, the “Agonist response, platelet aggregation” value with Platelets (Human) (agonist alone at 3.3 × 10-7) is given as 97.7 ± 1.6 % of max response; with Platelets (Human) (agonist alone at 10-6), 100.0 ± 1.9 % of max response; in the experiment with Platelets (Human) (agonist alone at 10-7), −7.0 + 1.1 % of max response; in the experiment with Platelets (Human) (agonist alone at 10-8), 0 % of max response.
As for `CCCCCC(O)/C=C/C1C2CC(OC(=O)O2)C1C/C=C\CCCC(=O)O` (stereo not drawn) [Example 7], the Intraocular pressure change in [2] (dose 0.01%, 0 HR) is listed as 0; in experiment [2] (dose 0.01%, 2 HR), −0.4; in experiment [2] (dose 0.01%, 4 HR), 0; in [2] (dose 0.01%, 6 HR), 0; in experiment [2] (dose 0.01%, 24 HR) it was −1.0; in experiment [2] (dose 0.01%, 26 HR), 3.2. Moreover, the Intraocular pressure change in [2] (dose 0.01%, 28 HR) is recorded as −4.6; in experiment [2] (dose 0.01%, 30 HR) it was −3.2; in [2] (dose 0.01%, 48 HR), −1.8; in experiment [2] (dose 0.01%, 50 HR) it was −3.8; in [2] (dose 0.01%, 52 HR) it was −4.0; in experiment [2] (dose 0.01%, 54 HR), −4.2. In addition, the Intraocular pressure change is reported as 4.2 in experiment [2] (dose 0.01%, 72 HR); −2.0 in experiment [2] (dose 0.01%, 74 HR); −3.2 in experiment [2] (dose 0.01%, 76 HR); −4.0 in [2] (dose 0.01%, 78 HR); −2.0 in [2] (dose 0.01%, 96 HR); −2.2 in experiment [2] (dose 0.01%, 98 HR). Further, the Intraocular pressure change in experiment [2] (dose 0.01%, 100 HR) is listed as −3.2; in experiment [3] (dose 0.01%, 2 HR after dosing), −9.7**; in [3] (dose 0.01%, 4 HR after dosing), −11.4**; in [3] (dose 0.01%, 6 HR after dosing) it was −11.25**. Further, the EC50 in the experiment on EP3 prostanoid receptor [4] amounted to 245 nM; on FP prostanoid receptor, 433 nM; in the experiment on EP1 prostanoid receptor, 1240 nM; in experiment [1] (Table 1, read-out: EC50 at TPVASC (Rat Aorta)), 0.23 nM; in experiment [1] (absence of SQ29,548, read-out: EC50 at TPVASC-receptor, rat aorta), 2 nM; in experiment [1] (presence of SQ29,548 (1 uM), read-out: EC50 at TPVASC-receptor, rat aorta) it was 325 nM. The EC50 was 24 nM in the experiment with Platelets (Human) (Table 1, read-out: EC50 Platelets (Human) Aggregation) and 282 nM in the experiment with EP3 prostanoid receptor [6]. Moreover, the “Agonist response, platelet aggregation” value in the experiment with Platelets (Human) (agonist alone at 3.3 × 10-8) is on record as −8.8 + 1.3 % of max response; in the experiment with Platelets (Human) (agonist alone at 10-6) it was 103.0 ± 1.9 % of max response; with Platelets (Human) (agonist alone at 10-7) it was 100.5 ± 2.2 % of max response; with Platelets (Human) (agonist alone at 10-8) it was −7.9 + 1.3 % of max response; with Platelets (Human) (agonist alone at 10-9) it was 0 % of max response. Moreover, the “Inhibition of vasoconstriction of isolated perfused cat coronary artery induced by carbocyclic TXA2” value in [5] was “Inhibited vasoconstriction of isolated perfused cat coronary artery induced by carbocyclic TXA2 by 72% at 1 μM^11”.
In the case of `CCCCCC(/C=C/C1C2CC(OC(=O)O2)C1C/C=C\CCCC(=O)O)O[Si](C)(C)C(C)(C)C` (stereo not drawn) [Example 16, 7-[6-carboxy-2-cis-hexenyl]-6-[3α-t-butyldimethylsilyloxy-1-trans-octenyl]-3-oxo-2,4-dioxobicyclo [3.2.1] octane], the “Action on the vasculature” value in the experiment with vasculature is reported as “weak vasoconstrictor activity”. In addition, the Action on platelets result in the experiment on platelets is recorded as “No effect”. For the same compound, in experiment [1] (in words), the “Activity in contracting vascular smooth muscle” value is recorded as “pronounced activity”. Moreover, the “Ability to cause platelet aggregation” value with Platelets (Human) (in words) is “no or minimal ability”.
For the compound “[1S-[1α, 2α(5Z), 3α, 4α]]-7-[3-[2(phenylamino)carbonyl]-hydrazino]methyl]-7-oxabicyclo [2.2.1]hept-2-yl]-5-hepten-1-ol [Example 22]”, the Kb (in general, the equilibrium dissociation constant of an antagonist, usually derived from a functional assay) in experiment [1] (Table 7) worked out at 18.2 nM; in the experiment on Platelets (Human) (Table 7), 4500 nM.
In the case of “[1S-[1α, 2α(Z), 3β(1E, 3S*), 4α]]-7-[3-(3-hydroxy-4-(4-iodophenoxy)-1-butenyl]-7-oxabicyclo[2.2.1]hept-2-yl]-5-hepten-1-ol [Example 21]”, the EC50 in experiment [1] (setting [8]) amounted to 0.4 nM.
Consider “Pinane thromboxane A2 [reference compound]”, for which the EC50 in [1] (setting [8]) came out at 203 nM; in the experiment with Platelets (Human) (setting [7]), 950 nM.
Consider “[1R-[1α, 4α, 5β(Z), 6α(1E, 3S*)-7-[6-(3-hydroxy-1-octenyl)-2-oxabicyclo[2.2.1]hept-5-yl]-5-hepten-1-ol [Example 19]”, for which the EC50 in experiment [1] (setting [8]) worked out at 26 nM.
`CCCCCC(/C=C/C1C2CC(OC(=O)O2)C1C/C=C\CCCC(=O)OCc1ccccc1)OC(=O)C(C)(C)C` (stereo not drawn) [Example 11, 7-16-carbobenzoxy-2-cis-hexenyl]-6-[3α-pivaloyloxy-1-trans-octenyl]-3-oxo-2,4-dioxobicyclo[3.2.11 octane]: the “Effect on HPRP” value with HPRP is on record as “no effect”. Besides, the Intraocular pressure change in experiment [3] (dose 0.1%, 2 HR after dosing) was −6.9**; in [3] (dose 0.1%, 4 HR after dosing) it was −7.7**; in experiment [3] (dose 0.1%, 6 HR after dosing), −9.4**.
I-BOP [reference compound]: the EC50 worked out at 2 nM in experiment [1] (setting [8]) and 214 nM in the experiment on Platelets (Human) (setting [7]).
For `CCCCC[C@H](O)/C=C/C1S[C@H]2CC(S2)[C@@H]1C/C=C\CCCC(=O)O` (stereo partly drawn) [Example 13], the IC50 (commonly the midpoint of a concentration-inhibition curve) in the experiment with HPRP (read-out: IC50 irreversible aggregation of HPRP) is 4300 nM. Moreover, in the experiment on rat aorta, the EC50 was 0.7 nM.
As for `CCCCCC(/C=C/C1C2CC(OC(=O)O2)C1C/C=C\CCCC(=O)O)OC(=O)C(C)(C)C` (stereo not drawn) [Example 12, 7-[6-carboxy-2-cis-hexenyl]-6-[3α-pivaloyloxy-1-trans-octenyl]-3-oxo-2,4-dioxobicyclo [3.2.1] Octane], the “Effect on HPRP” value in the experiment with HPRP is listed as “no effect”. The Intraocular pressure change in [3] (dose 0.1%, 2 HR after dosing) is listed as −3.8**; in [3] (dose 0.1%, 4 HR after dosing), −4.7**; in experiment [3] (dose 0.1%, 6 HR after dosing), −6.9**.
As to “[1S-[1α, 2β(Z), 3(1E, 3R*), 5α]]-7-[3-(3-hydroxy-1-octenyl)-6,6-dimethylbicyclo[3.1.1]hept-2-yl]-5-hepten-1-ol [Example 20]”, in [1] (setting [8]), the EC50 came to 929 nM.
